Experimental data reported in US20110110916A1, “METHODS FOR TREATING AND/OR PREVENTING CARDIOMYOPATHIES BY ERK OR JNK INHIBITION” (priority 2008, published 2011).
Like-named read-outs stand apart in the source and are kept apart here.

Columns and labels:
Lmna^H222P/H222P mice [1] = test: Echocardiography at 20 weeks of age, second-generation MEK1/2 inhibitors from 16 to 20 weeks; format: in vivo, mouse; settings: 1 mg/kg/day, 5 days a week from 16 to 20 weeks
Protocol: The compounds were administered at a dose of 1 mg/kg/day, 5 days a week to Lmna^H222P/H222P mice, as previously described. Treatment was initiated at 16 weeks of age and continued until the mice were 20 weeks of age. At 20 weeks of age, the mice were analyzed by echocardiography and then sacrificed for biochemical studies. Untreated male Lmna^+/+ and Lmna^H222P/H222P mice were similarly analyzed for comparisons.

ERK1/2 = test: Immunoblot of phosphorylated ERK1/2 versus total ERK1/2 in hearts of treated mice; format: in vivo, mouse; settings: 1 mg/kg/day from 16 to 20 weeks of age
Protocol: Hearts were excised from mice at 16-weeks of age and were homogenized in RIPA extraction buffer (Cell Signalling) containing protease inhibitors (25 […]). Protein samples were subjected to SDS-PAGE, transferred to nitrocellulose membranes and blotted with primary antibodies against ERK1/2 (Santa-Cruz), phosphorylated ERK1/2 (Cell Signaling), JNK (Santa-Cruz), natriuretic peptide precursor A (Santa-Cruz), phosphorylated JNK (Cell Signaling), and Gapdh (Ambion). Secondary antibodies were HRP-conjugated (Amersham). Recognized proteins were visualized by enhanced chemiluminescence (ECL, Amersham). The signal generated using an antibody against Gapdh was used as internal controls to normalize the amounts of protein between immunoblots.
We assessed the efficacy of the chemical entities in inhibiting their targets in the heart by immunoblot using anti-total ERK1/2 (Santa Cruz) and anti-pERK1/2 (Cell Signaling) antibodies.
Proteins were loaded on 10% SDS gels and electrotransferred on a […] pore size nitrocellulose membrane (Invitrogen). We used antibodies directed against phosphorylated ERK1/2 (Cell Signaling, 1:1,000), total ERK1/2 (Santa Cruz, 1:2,000), phosphorylated JNK (Cell Signaling, 1:1,000) and total JNK (Santa Cruz, 1:200). The secondary antibodies were coupled to horseradish-peroxydase (Amersham). Recognized proteins were visualized by enhanced chemiluminescence (SuperSignal® West Pico chemiluminescent substrate, Thermo Scientific).

[2] = test system: hearts from Lmna^H222P/H222P mice; test: Quantitative real-time RT-PCR of mRNAs in hearts of treated mice; format: in vivo, mouse; settings: for expression of Colla1 and Colla2: 20 weeks of age, 1 mg/kg/day from 16 to 20 weeks
Source text: Total RNA was extracted using the Rneasy isolation kit (Qiagen) as previously described (96). cDNA was synthesized as previously described (96) using Omniscript Reverse Transcriptase (Qiagen) on total cellular RNA. For each replicate in each experiment, RNA from tissue samples of different animals was used. Primers were designed that correspond to mouse RNA sequences using Primer3 (http://frodo.wi.mit.edu/cgi-biniprimer3/primer3_www.cgi). The real-time RT-PCR reaction contained iQ SYBR green super mix (Bio-Rad), 200 nM of each primer and 0.2 μl of template in a 25 μl reaction volume. Amplification was carried out using appropriate primers and the MyiQ Single-Color Real-Time PCR Detection System (Bio-Rad) with an initial denaturation at 95° C. for 2 min followed by 50 cycles at 95° C. for 30 s and 62° C. for 30 s. Relative levels of mRNA expression were calculated using the CT method (67). Individual expression values were normalized by comparison with Gapdh mRNA.
Real-time reverse transcription-PCR (RT-PCR) was used to quantify tissue RNA levels. Total RNA was extracted from cardiac ventricles of mice using the Rneasy isolation kit (Qiagen) as previously described. cDNA was synthesized using Superscript first strand synthesis system according to the manufacturer's instructions (Invitrogen) on total RNA. For each replicate in each experiment, RNA from tissue samples of different animals was used. Primers were designed correspond to mouse RNA sequences using Primer3 (http://frodo.wi.mit.edu/cgi-bin/primer3/primer3_www.cgi) for Nppa (forward 5′-[…]-3′ [SEQ ID NO: 4], reverse 5′-[…]-3′ [SEQ ID NO: 5]), Nppb (forward 5′-[…]-3′ [SEQ ID NO: 6], reverse 5′-[…]-3′ [SEQ ID NO: 7]), Mlc-2a (forward 5′-[…]-3′ [SEQ ID NO: 8], reverse 5′-[…]-3′ [SEQ ID NO: 9]), Colla1 (forward 5′-[…]-3′ [SEQ ID NO: 10], reverse 5′-[…]-3′ [SEQ ID NO: 11]), Colla2 (forward 5′-[…]-3′ [SEQ ID NO: 12], reverse 5′-[…]-3′ [SEQ ID NO: 13]) and Fn1 (forward 5′-[…]-3′ [SEQ ID NO: 14], reverse 5′-[…]-3′ [SEQ ID NO: 15]). The real-time RT-PCR reaction contained iQ SYBR green super mix (Bio-Rad), 200 nM of each primer, and 0.2 μl of template in a 25 μl reaction volume. Amplification was carried out using the MyiQ Single-Color Real-Time PCR Detection System (Bio-Rad) with an initial denaturation at 95° C. for […] followed by 50 cycles at 95° C. for 30 s and 62° C. for 30 s. Relative levels of mRNA expression were calculated using the ΔΔCT method (2). Individual expression values were normalized by comparison with Gapdh mRNA (forward 5′-[…]-3′ [SEQ ID NO: 16], reverse 5′-[…]-3′ [SEQ ID NO: 17]).

[3] = test system: hearts from Lmna^H222P/H222P mice; test: Quantification of myocardial fibrotic area (Gomori's trichrome); format: in vivo, mouse; settings: 20 weeks of age; 1 mg/kg/day from 16 to 20 weeks; DMSO 20.93%±2.45%
Source text: Later-stage cardiomyopathy caused by LMNA mutations is characterized by myocardial fibrosis. […] We quantified the myocardial fibrotic area of each animal by determining the ratio of fibrotic tissue (blue stained with Gomori's trichrome) to the total tissue area in each micrograph (FIG. 8B). Hearts from DMSO-treated Lmna^H222P/H222P mice had 20.93%±2.45% fibrotic tissue per total surface examined (FIG. 8B).
Mice were sacrificed at 20 weeks of age, and freshly removed hearts were fixed in 4% formaldehyde for 48 hours, embedded in paraffin, sectioned at 5 μm and stained with hematoxylin, eosin and Gomori's trichrome and Syrius Red. Representative stained sections were photographed using a Microphot SA (Nikon) light microscope attached to a Spot RT Slide camera (Diagnostic Instruments) with a 10× objective. Images were processed using Adobe Photoshop CS (Adobe Systems).
Later-stage cardiomyopathy caused by LMNA mutations is characterized by myocardial fibrosis (21,22). […] We quantified the myocardial fibrotic area of each animal by determining the ratio of fibrotic tissue (blue stained with Gomori's trichrome) to the total tissue area in each micrograph (FIG. 34C). Hearts from DMSO-treated Lmna^H222P/H222P mice had 15.01±0.9% fibrotic tissue per total surface examined (FIG. 34D).

[4] = test system: atrial natriuretic factor; test: Serum atrial natriuretic factor before and after treatment; format: in vivo, mouse; settings: before (16 weeks) and after (20 weeks) treatment; compared to DMSO-treated mice
Source text: We measured the expression of atrial-natriuretic factor in the serum Lmna^H222P/H222P mice before (16 weeks) and after (20 weeks) the treatment with the MEK1/2 inhibitors (FIG. 3).

MEK1/2 = settings: Table 10, description of MEK1/2 inhibitors; cited from earlier work
Lmna^H222P/H222P mice [5] = format: in vivo, mouse; settings: Lmna^H222P/H222P mice at 16 weeks of age; i.p. 5 days a week from 8 to 16 weeks (PD98059, SP600125 3 mg/kg/day); means ± standard deviations
Protocol: PD98059 (Calbiochem) and SP600125 (Calbiochem) were dissolved in Dimethyl Sulfoxide (DMSO, Sigma) at a concentration of 0.5 mg/ml and were delivered to a dose of 3 mg/kg/day for 5 days a week. […] The placebo control consisted of DMSO alone. Placebo and inhibitors were administered by intraperitoneal injection using a 27G^5/8 syringe. Treatment was started when mice were 8 weeks of age and continued until 16 weeks of age.
Lmna H222P knock-in mice were generated and genotyped as described (14). […] Lmna^H222P/H222P mice were separated by sex and were given either vehicle alone (DMSO), the MEK inhibitor PD98059 alone, the JNK inhibitor SP600125 alone, both PD98059 and SP600125 together, the MEK inhibitor U0126 alone, or the MEK inhibitor MEK1/2 alone. All the mice were fed on a chow diet and housed in a barrier facility. The Institutional Animal Care and Use Committee at Columbia University Medical Center approved the use of animals in the study protocol.
Cardiac function was assessed by echocardiography with a Visualsonics Vevo 770 ultrasound with a 30-MHz transducer applied to the chest wall. Cardiac ventricular dimensions and ejection fraction were measured in 2D-mode and M-mode three times for the number of animals indicated. A “blinded” echocardiographer, unaware of the genotype or treatment, performed the examinations.
We administered PD98059, at a dose of 3 mg/kg/day or 6 mg/kg/day, or placebo (dimethylsulfoxide; DMSO) by intraperitoneal injection 5 days a week to male homozygous Lmna mutant mice (Lmna^H222P/H222P). […] PD98059 mediates its inhibitory properties by binding to MEK, therefore preventing phosphorylation of ERK1/2.
Treatment was initiated at 8 weeks of age and continued until the mice were 16 weeks of age. At 16 weeks of age, the mice were analyzed by echocardiography and then sacrificed for histological and biochemical studies. Untreated male Lmna^+/+ and Lmna^H222P/H222P mice were similarly analyzed for comparisons.

[6] = 1 mg/kg/day from 16 to 20 weeks of age

SMILES | FS (Lmna^H222P/H222P mice [1]) | LVEDD compared to DMSO-treated mice (Lmna^H222P/H222P mice [1]) | LVESD compared to DMSO-treated mice (Lmna^H222P/H222P mice [1]) | phosphorylation of ERK1 and ERK2 in hearts (ERK1/2) | decrease of Mlc-1a and Mlc-2a mRNAs compared to hearts of DMSO-treated mice [2, 6] | expression of Colla1 and Colla2 [2] | area of fibrotic tissue per total surface examined [3] | expression of atrial natriuretic factor in serum [4] | IC50 (MEK1/2) | FS improvement (Lmna^H222P/H222P mice [1]) | EF (Lmna^H222P/H222P mice [5]) | FS (Lmna^H222P/H222P mice [5]) | IVSD (Lmna^H222P/H222P mice [5]) | LVEDD (Lmna^H222P/H222P mice [5]) | LVESD (Lmna^H222P/H222P mice [5]) | LVPW (Lmna^H222P/H222P mice [5]) | cardiac expression of brain natriuretic factor (Nppb) [2, 6]
Cn1cnc2c(F)c(Nc3ccc(Br)cc3Cl)c(C(=O)NOCCO)cc21 [AZD6244] | 25.97%±5.05% | significantly smaller | significantly smaller | inhibited partially | approximately 2 fold | significantly lowered | 11.90%±1.97% | significantly decreased | 10 nM |  |  |  |  |  |  |  | 
O=C(NOCC1CC1)c1ccc(F)c(F)c1Nc1ccc(I)cc1Cl [CI-1040] |  | significantly smaller |  | inhibited partially |  | significantly lowered | 13.10%±0.96% | significantly decreased | 1 nM | not improved |  |  |  |  |  |  | 
N#CC(=C(N)Sc1ccc(N)cc1)c1ccccc1C(F)(F)F [MEK1/2, Z-& E-a-(amino-((4-aminophenyl)thio)methylene)-2-(trifluoromethyl)benzeneacetonitrile] |  |  |  |  |  |  |  |  |  |  | 64.43 ± 0.77% | 34.50 ± 0.36% | 0.60 ± 0.00 mm | 3.77 ± 0.32 mm | 2.62 ± 0.28 mm | 0.69 ± 0.08 mm | 
O=C(NOCC(O)CO)c1ccc(F)c(F)c1Nc1ccc(I)cc1F (centres unmarked) [PD0325901] | 23.23%±6.33% |  |  | inhibited partially | approximately 2 fold | significantly lowered | 15.06%±0.28% | trend toward diminished expression |  |  |  |  |  |  |  |  | decreased
N#CC(=C(N)Sc1ccccc1N)C(C#N)=C(N)Sc1ccccc1N [U0126, 1,4-diamino-2,3-dicyano-1,4-bis(2-aminophenylthio)butadiene] |  |  |  |  |  |  |  |  |  |  | 62.83 ± 4.09% | 33.79 ± 3.10% | 0.64 ± 0.03 mm | 3.54 ± 0.16 mm | 2.47 ± 0.09 mm | 0.69 ± 0.11 mm | 
